Measurements: ChEMBL document CHEMBL1201862, “PubChem BioAssay data set” (2004)
Active and inactive are the calls of the source. Rule as the data show it, for most assays here: actives have a measured EC50 and inactives only a lower limit.

Assays:
H4 = test: Luminescence Cell-Based Dose Response HTS to Identify Activators of 5'UTR Stem-Loop Driven Prion Protein mRNA Translation in H4 Neuroglioblastoma Cells. [Related pubchem assays: 1829 (Project Summary), 1814 (Primary HTS)]; format: functional; settings: Homo sapiens
[1] = Luminescence Cell-Based Dose Confirmation HTS to Identify Activators of 5'UTR Stem-Loop Driven Alpha-Synuclein mRNA Translation in H4 Neuroglioblastoma Cells. [Related pubchem assays: 1829 (Project Summary), 1814 (Primary HTS)]; format: functional
[2] = Luminescence Cell-Based Dose Response HTS to Identify Activators of Luciferase Translation or Activity in H4 […] Cells. [Related pubchem assays: 1829 (Project Summary), 1814 (Primary HTS)]; format: functional
[3] = HEp-2 cell cytotoxicity, dose response, cytotoxicity control for RSV inhibitor project, HTS (AID 2410); format: functional; settings: human respiratory syncytial virus
[4] = test system: Streptococcus sp. 'group A'; test: growth inhibition of control SK(-) GAS strain, dose response, counter-screen for streptokinase expression inhibitor project, luminescence, kanamycin, BacTiterGlo, confirmation (AID 1900); format: functional, organism-based; settings: read-out: EC50
[5] = inhibitors of SNCA 5'UTR-driven reporter translation, confirmation, H4 neuroglioma cells, luminescence (AID 1988); format: functional, cell-based
Streptococcus = test: Group A Streptococcus viability loss, dose response, counter-screen for streptokinase expression inhibitor project, luminescence, BacTiterGlo (AID 1915); format: functional, organism-based;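 also: potency for reduction of bacterial viability or growth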
[6] = Luminescence Cell-Based Dose Response HTS to Identify Inhibitors of 5'UTR Stem-Loop Driven Prion Protein mRNA Translation in H4 Neuroglioblastoma Cells. [Related pubchem assays: 1827 (Project Summary), 1813 (Primary HTS)]; format: functional
[7] = inhibitors of firefly luciferase expression or activity, dose response, H4 neuroglioma cells, luminescence (AID 1990); format: functional, cell-based
Streptokinase A = target: T1, Streptokinase A (Streptococcus pyogenes serotype M1, UniProt P10520); test: S. pyogenes streptokinase expression inhibitors, potency, dose response, plasminogen activation absorbance, OD405 (AID 1914); format: functional, Streptococcus pyogenes M1 GAS;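 also: secreted streptokinase activity via plasminogen activation per viability signal from cell pellet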
T1 sequence (P10520 whole entry): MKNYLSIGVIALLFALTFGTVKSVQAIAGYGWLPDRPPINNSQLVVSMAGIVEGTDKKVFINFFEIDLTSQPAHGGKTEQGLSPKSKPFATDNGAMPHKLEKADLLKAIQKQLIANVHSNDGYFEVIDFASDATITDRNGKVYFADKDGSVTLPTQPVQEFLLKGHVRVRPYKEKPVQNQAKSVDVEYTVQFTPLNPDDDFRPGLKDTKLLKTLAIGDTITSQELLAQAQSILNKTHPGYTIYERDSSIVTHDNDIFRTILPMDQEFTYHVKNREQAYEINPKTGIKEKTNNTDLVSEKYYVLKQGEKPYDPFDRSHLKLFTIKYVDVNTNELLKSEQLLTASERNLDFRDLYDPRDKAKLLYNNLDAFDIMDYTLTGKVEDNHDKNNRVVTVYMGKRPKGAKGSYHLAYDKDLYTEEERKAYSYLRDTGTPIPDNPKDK

[8] = target: T2, Rac GTPase-activating protein 1 (Homo sapiens, UniProt Q9H0H5); test: MgcRacGAP GTPase-activating activity inhibitors, confirmation, biochemical, ADP Hunter fluorescence, primary and confirmatory (AID 624330); format: functional
T2 sequence (Q9H0H5 whole entry): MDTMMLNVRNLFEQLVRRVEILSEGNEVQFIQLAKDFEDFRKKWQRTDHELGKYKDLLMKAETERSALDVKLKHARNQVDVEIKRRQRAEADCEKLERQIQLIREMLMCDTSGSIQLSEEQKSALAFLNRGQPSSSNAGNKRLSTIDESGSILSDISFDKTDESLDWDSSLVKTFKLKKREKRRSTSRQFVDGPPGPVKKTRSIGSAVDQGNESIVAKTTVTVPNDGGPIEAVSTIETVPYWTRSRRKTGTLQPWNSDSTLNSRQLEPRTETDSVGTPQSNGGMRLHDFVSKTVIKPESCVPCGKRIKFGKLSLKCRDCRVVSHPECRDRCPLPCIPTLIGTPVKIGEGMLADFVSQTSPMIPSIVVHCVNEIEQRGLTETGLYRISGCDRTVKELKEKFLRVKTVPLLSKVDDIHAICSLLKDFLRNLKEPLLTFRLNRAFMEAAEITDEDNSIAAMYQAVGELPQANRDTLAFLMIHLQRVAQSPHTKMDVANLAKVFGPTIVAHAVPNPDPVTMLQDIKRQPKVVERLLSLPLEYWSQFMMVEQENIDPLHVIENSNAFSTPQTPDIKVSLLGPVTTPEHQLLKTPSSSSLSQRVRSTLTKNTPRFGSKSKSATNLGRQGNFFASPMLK

INS1 = test: beta cell apoptosis inhibitors, cytokine rescue, dose response, luminescence, retest (AID 449756); format: functional, cell-based; settings: Rattus norvegicus;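 also: cell death triggered by IL-1 beta plus TNF-alpha plus IFN-gamma mixture; protective hits raise ATP signal compared with cytokine alone wells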
[9] = Luminescence Cell-Based Dose Retest to Confirm Inhibitors of Cancer Stem Cells. [Related pubchem assays (depositor defined):AID2717, AID2721]; format: functional, Homo sapiens; settings: Homo sapiens
Paired box protein Pax-8 = Paired box protein Pax-8 (Homo sapiens, UniProt Q06710); test: inhibitors of PAX8-driven TPO luciferase reporter, dose response, RMG-I cells, cherry-pick (AID 687027); format: functional, cell-based;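 also: luciferase reporter driven by Pax8 target thyroperoxidase promoter measured by SteadyGlo luminescence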
Sequence of Paired box protein Pax-8 (Q06710 whole entry): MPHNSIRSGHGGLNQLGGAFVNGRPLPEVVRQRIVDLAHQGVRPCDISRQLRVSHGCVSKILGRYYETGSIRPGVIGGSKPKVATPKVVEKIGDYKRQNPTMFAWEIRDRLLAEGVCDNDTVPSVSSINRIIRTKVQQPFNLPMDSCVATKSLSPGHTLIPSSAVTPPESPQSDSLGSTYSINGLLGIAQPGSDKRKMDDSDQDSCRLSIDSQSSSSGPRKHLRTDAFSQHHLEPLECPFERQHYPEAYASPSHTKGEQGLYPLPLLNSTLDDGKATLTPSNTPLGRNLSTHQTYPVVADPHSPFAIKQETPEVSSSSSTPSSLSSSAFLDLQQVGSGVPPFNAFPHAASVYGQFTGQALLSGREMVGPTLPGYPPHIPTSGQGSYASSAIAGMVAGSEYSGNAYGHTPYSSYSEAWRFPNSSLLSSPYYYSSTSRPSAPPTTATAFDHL

| Compound | EC50 (H4) | EC50 [1] | EC50 [2] | further results |
| --- | --- | --- | --- | --- |
| COc1cccc(-c2nc(-c3ccc4c(c3)NC(=O)CO4)cs2)c1 | 10.8 µM (active) | 17.7 µM (active) | 22.7 µM (active) | – |
| Cc1cc2c(cc1C)CSC(c1ccccc1OC(=O)C(C)(C)C)SC2 | – | – | – | CC50 [3]: 16.8 µM (active) |
| COc1ccc(-c2cc(C(F)F)n3ncc(C(=O)N4CCc5ccccc5C4)c3n2)cc1 | – | – | – | CC50 [3]: 28.3 µM (active) |
| COc1ccc(-c2csc(NC(=O)c3ccc(C(C)(C)C)cc3)c2C(=O)O)cc1 | – | – | – | EC50 [4]: 1.75 µM (active); EC50 [5]: 11.5 µM (active); EC50 (Streptococcus): 7.24 µM (active); EC50 [6]: 4.3 µM (active); EC50 [7]: 14.5 µM (active); EC50 (Streptokinase A): 3.12 µM (inconclusive) |
| Cc1cnc(NC(=O)CCc2ccccc2)s1 | 15.2 µM (active) | > 120 µM (not active) | 16.6 µM (active) | – |
| CN1C(=O)C(=Cc2c(OCc3cnc(Cl)s3)ccc3ccccc23)C(=O)N(C)C1=O | – | – | – | CC50 [3]: 20.3 µM (active) |
| Cc1ccc2nc3ccc(N4CCCC4)nn3c(=O)c2c1 | > 120 µM (not active) | 0.723 µM (active) | 0.558 µM (active) | – |
| CC(C)(C)c1ccc(C(=O)N2CCN(C(=O)c3ccco3)CC2)cc1 | – | – | – | EC50 [4]: > 150 µM (not active); EC50 (Streptococcus): > 150 µM (not active); EC50 (Streptokinase A): > 150 µM (not active) |
| CCc1cc2c(=O)c(-c3ccc4c(c3)OCCO4)coc2cc1OC(=O)c1ccco1 | – | – | – | CC50 [3]: 29.9 µM (active) |
| O=c1cc(Cl)[nH]c(=O)n1CCNc1ncc(C(F)(F)F)cc1Cl | 7.52 µM (active) | 12.6 µM (active) | 5.68 µM (active) | – |
| Nc1cc(-c2ccc(Br)cc2)nn1S(=O)(=O)c1cccc2nsnc12 | – | – | – | CC50 [3]: 11.2 µM (active) |
| CSc1ccc(C2c3[nH]c4ccccc4c3CCN2C(=O)c2cc(C)n(C)n2)cc1 (stereo unspecified) | 11.8 µM (active) | 14.2 µM (active) | 17.1 µM (active) | – |
| COCC1CCN(C(=O)c2ccc3oc(Cc4ccccc4)nc3c2)C1 (stereo unspecified) | – | – | – | EC50 [4]: > 150 µM (not active); EC50 (Streptococcus): > 150 µM (not active); EC50 (Streptokinase A): > 150 µM (not active) |
| O=C(Nc1cccc(-c2cccc(Cl)c2)c1)C1CCN(Cc2ccc(CO)o2)CC1 | – | – | – | CC50 [3]: 12.7 µM (active) |
| Cc1ccc(-c2cn(-c3ccccc3)c(SCC(=O)NC3CCS(=O)(=O)C3)n2)cc1C (stereo unspecified) | 0.301 µM (active) | 1.36 µM (active) | 8.74 µM (active) | – |
| Cc1ccc(C(=O)NCCC(=O)N2CCCC2)cc1 | > 120 µM (not active) | 0.419 µM (active) | 5.97 µM (active) | – |
| O=C(CSc1nc(O)c2cnn(-c3ccccc3)c2n1)N1N=C(c2cccs2)CC1c1ccc(F)cc1 (stereo unspecified) | – | – | – | EC50 [4]: 3.15 µM (active); EC50 (Streptococcus): 7.18 µM (active); EC50 (Streptokinase A): > 150 µM (not active) |
| COc1ccccc1NC(=O)Cn1c(CN2CCCCC2)nc2ccccc2c1=O | 37.8 µM (active) | > 120 µM (not active) | > 120 µM (not active) | – |
| O=C(CSc1ncnc2sc3c(c12)CCCC3)c1ccccc1 | 28.8 µM (active) | 11.6 µM (active) | 9.61 µM (active) | – |
| CCc1ccc(CN(C)Cc2nc(-c3cccc(Cl)c3)no2)nc1 | – | – | – | EC50 [4]: 18.4 µM (active); EC50 (Streptococcus): > 150 µM (not active); EC50 (Streptokinase A): > 150 µM (not active) |
| Nc1ccc(C(=O)c2ccc3c(c2)OCCO3)cc1N | 21.2 µM (active) | 9.68 µM (active) | 8.7 µM (active) | IC50 [8]: 22.9 µM (active) |

| Compound | EC50 (H4) | EC50 [1] | EC50 [2] | further results |
| --- | --- | --- | --- | --- |
| CCCn1c(=N)c(C(=O)NC2CCCC2)cc2c(=O)n3cccc(C)c3nc21 | > 120 µM (not active) | > 120 µM (not active) | > 120 µM (not active) | – |
| O=C(NCc1cccnc1)c1ccc([N+](=O)[O-])cc1 | – | – | – | AC50 (INS1): 3.6 µM (active) |
| CC(=O)Nc1cccc(-n2nnc(SCC(=O)c3ccccc3)n2)c1 | 2.02 µM (active) | 10.5 µM (active) | 19.8 µM (active) | – |
| COc1ccc(Oc2nc(-c3ccccn3)nc3ccccc23)cc1 | – | – | – | EC50 [4]: 17.1 µM (active); EC50 (Streptococcus): > 150 µM (not active); EC50 (Streptokinase A): > 150 µM (not active) |
| Cc1ccc(F)c([C@H]2C3C=CCC(c4ccccc4)C3C(=O)N2Cc2ccccc2)c1 (stereo partly specified) | – | – | – | AC50 [9]: 3.71 µM (active); AC50 (INS1): 11 µM (active) |
| CC1CCN(C(C(=O)NC2CCCCC2)c2cc3c(cc2[N+](=O)[O-])OCO3)CC1 (stereo unspecified) | 22.1 µM (active) | > 120 µM (not active) | 25 µM (active) | – |
| c1ccc(Cn2c(-c3ccco3)nc3nc4ccccc4nc32)cc1 | > 120 µM (not active) | 11.6 µM (active) | 0.127 µM (inconclusive) | – |
| O=C(NCCSc1ccccc1)c1ccco1 | 15 µM (active) | – | > 120 µM (not active) | – |
| O=C(c1cc2ccccn2n1)N1CCN(Cc2ccccc2)CC1 | 9.44 µM (active) | 6.68 µM (active) | 24.1 µM (active) | – |
| O=C(Nc1ccc(N2CCN(C(=O)c3ccc(Cl)cc3)CC2)cc1)c1cccnc1 | – | – | – | AC50 (INS1): 5.43 µM (active) |
| Cc1cccc(Nc2nc(N)nc(CN3CCN(c4ccccc4F)CC3)n2)c1 | – | – | – | EC50 [4]: 7.31 µM (active); EC50 (Streptococcus): 45.8 µM (active); EC50 (Streptokinase A): > 150 µM (not active) |
| O=C(N/N=C/c1cc(Br)cs1)c1ccc2c(c1)OCCO2 | > 120 µM (not active) | 0.106 µM (active) | – | – |
| O=C(c1ccc(F)cc1)N1C[C@@H]2N[C@H](C1)[C@@H]2c1ccc(-c2ccc(F)cc2)cc1 | – | – | – | AC50 (Paired box protein Pax-8): 18.3 µM (active) |
| C[C@@H]1CCCCO[C@H](CN(C)Cc2ccc(C(F)(F)F)cc2)[C@H](C)CN([C@H](C)CO)C(=O)c2cc(NC(=O)Nc3ccc(F)cc3)ccc2O1 | – | – | – | AC50 (Paired box protein Pax-8): 10.7 µM (active) |
| C[C@@H]1CCCCO[C@H](CN(C)S(=O)(=O)c2ccc(Cl)cc2)[C@H](C)CN([C@@H](C)CO)C(=O)c2cc(N(C)C)ccc2O1 | – | – | – | AC50 (Paired box protein Pax-8): 8.81 µM (active) |
| COC1C(CO)OC(n2c3c(Cl)cccc3c3c4c(c5c6cccc(Cl)c6[nH]c5c32)C(=O)NC4=O)C(O)C1O (stereo unspecified) | – | – | – | AC50 (Paired box protein Pax-8): 1.11 µM (active) |
| Cc1cc(C)c([N+](=O)[O-])cc1-c1ccc(/C=N/NC(=O)c2nonc2N)o1 | – | – | – | CC50 [3]: > 50 µM (active) |
| CCN(CC)c1ccc(/C=N/N2CCOCC2)c(O)c1 | 20 µM (active) | – | 4.58 µM (active) | IC50 [8]: 75.6 µM (active) |
| O=[N+]([O-])c1cc(S(=O)(=O)/N=C(/c2ccccc2)N2CCOCC2)ccc1Cl | – | 0.714 µM (active) | 14.6 µM (active) | – |
| Cc1cc(C)c(C2C3=C(Nc4c2c(C)nn4-c2ccccn2)c2ccccc2C3=O)c(C)c1 (stereo unspecified) | – | – | – | EC50 [4]: 7.61 µM (active); EC50 [5]: 19.9 µM (active); EC50 (Streptococcus): 128 µM (active); EC50 [6]: > 120 µM (not active); EC50 [7]: 17 µM (active); EC50 (Streptokinase A): 22.2 µM (active) |
| Nc1nc2nc[nH]c2c(=S)[nH]1 [THIOGUANINE] | – | – | – | AC50 (Paired box protein Pax-8): 1.18 µM (active) |
